The nature of data set [1]: CD interaction of perfume components. Format: physicochemical. Further details: key: cyclodextrin-compatible perfume materials (i.e. having weak CD interaction); cyclodextrin-incompatible enduring (hydrophobic) perfume materials (i.e. having significant or strong CD interaction); cyclodextrin-incompatible enduring (hydrophobic) perfume materials (i.e. having significant or strong CD interaction). As to conditions: perfume component with cyclodextrin. The text has this: The following table illustrates the molecular weight property of some of the cyclodextrin-incompatible enduring (hydrophobic) perfume materials (i.e. having significant or strong CD interaction) versus cyclodextrin-compatible perfume materials (i.e. having weak CD interaction).

For data set [2] the following is noted: cited from earlier work.
Data set [3] is described as follows: Complexation constant with cyclodextrin, spectral displacement method with phenolphthalein. It counts as physicochemical. As to conditions: no unit in table, complexation constants in M^−1. The source says:
A spectral displacement method with phenolphthalein is used to determine the complexation constant between cyclodextrin and a given material, especially for surfactants. This method of determining complexation constants with cyclodextrins is described in detail in the following references, which are hereby incorporated herein by reference: Sasaki, K. J., Christian, S. D., and Tucker, E. E., “Study of the Stability of 1:1 Complexes Between Aliphatic Alcohols and b-Cyclodextrins in Aqueous Solution,” Fluid Phase Equilibria, Vol. 49, (Amsterdam, Elsevier Science Publishers, 1989), pp. 281-89. Further information regarding spectral displacement methods can be found in other references, e.g. in Wilson, L. D., Siddall, S. R., and Verrall R. E., “A Spectral Displacement Study of the Binding Constants of Cyclodextrin-Hydrocarbon and—Fluorocarbon Surfactant Inclusion Complexes,” Canadian Journal of Chemistry, Vol. 75, (NRC Canada 1997), pp. 927-933, which is incorporated by reference herein.
The test method is based on the fact that phenolphthalein will complex with cyclodextrin and in complexed form is colorless. However, it has a strong color at pH 10.5 when in non-complexed form. Other, cyclodextrin-incompatible, materials themselves complex with the cyclodextrin and prevent the phenolphthalein from doing so. Thus the higher the complexation constant of the other component with cyclodextrin, the more non-complexed phenolphthalein will be present and the stronger the observed color.
The complexation constant of a given material with cyclodextrin is obtained by an absorbance measurement in the visible region at 550 nm that is performed with a spectrophotometer at room temperature. All solutions are prepared in 4.0×10^−3 mol/l Na2CO3 solution to maintain a constant pH. The concentration of phenolphthalein is kept constant at 3.0×10^−5 mol/l. Cyclodextrin concentration and surfactant concentration are varied. Here, optimum parameter values for absorption coefficient of phenolphthalein at 550 nm is 33,000 M^−1 cm^−1, and the complexation constants of phenolphthalein with cyclodextrin and cyclodextrin derivatives are preliminary obtained. […] Complexation constants of cyclodextrin-compatible and/or cyclodextrin-incompatible materials are determined with using the free, uncomplexed phenolphthalein concentration obtained by absorbance at 550 nm.

Data set [4] in a line: Complexation constant of phenolphthalein with beta-cyclodextrin (absorbance at 550 nm). Format: physicochemical. The settings on record: room temperature, 4.0×10^−3 mol/l Na2CO3, pH 10.5. The source says: A spectral displacement method with phenolphthalein is used to determine the complexation constant between cyclodextrin and a given material, especially for surfactants. This method of determining complexation constants with cyclodextrins is described in detail in the following references, which are hereby incorporated herein by reference: Sasaki, K. J., Christian, S. D., and Tucker, E. E., “Study of the Stability of 1:1 Complexes Between Aliphatic Alcohols and b-Cyclodextrins in Aqueous Solution,” Fluid Phase Equilibria, Vol. 49, (Amsterdam, Elsevier Science Publishers, 1989), pp. 281-89. Further information regarding spectral displacement methods can be found in other references, e.g. in Wilson, L. D., Siddall, S. R., and Verrall R. E., “A Spectral Displacement Study of the Binding Constants of Cyclodextrin-Hydrocarbon and—Fluorocarbon Surfactant Inclusion Complexes,” Canadian Journal of Chemistry, Vol. 75, (NRC Canada 1997), pp. 927-933, which is incorporated by reference herein. […]
The complexation constant of a given material with cyclodextrin is obtained by an absorbance measurement in the visible region at 550 nm that is performed with a spectrophotometer at room temperature. […] Complexation constants of cyclodextrin-compatible and/or cyclodextrin-incompatible materials are determined with using the free, uncomplexed phenolphthalein concentration obtained by absorbance at 550 nm.

Where a name gives a salt, the structure may show the parent alone.

On to `CC(C=O)Cc1ccc(C(C)C)cc1` (centres unmarked) [Cymal], for which the CD interaction result in data set [1] was “strong”. On the same count and under the same terms, under `CCCCCCC(C=O)=Cc1ccccc1` [Hexyl cinnamic Aldehyde] stands “weak”. On the same count and under the same terms, under `CCCCCCCCCCCCCC(=O)OC(C)C` [Iso-propyl Myristate] stands “weak”.

In the case of `[H]/N=C(\N/C(=N/[H])NCCCCCCNC(=N)NC(=N)Nc1ccc(Cl)cc1)Nc1ccc(Cl)cc1` [digluconate salt, 1,1′-hexamethylene bis(5-(p-chlorophenyl)biguanide)], the solubility in water result in data set [2] is listed as “about 70%”. With `[H]/N=C(\N/C(=N/[H])NCCCCCCNC(=N)NC(=N)Nc1ccc(Cl)cc1)Nc1ccc(Cl)cc1` [diacetate salt, 1,1′-hexamethylene bis(5-(p-chlorophenyl)biguanide)], the solubility in water result in data set [2] is listed as “about 1.8%”. In the case of `CCOC(=O)c1ccccc1C(=O)OCC` [Diethyl Phthalate], in data set [1], the CD interaction entry is reported as “weak”. Consider Laureth-6, for which the “Complexation Constant (K)” value in data set [3] is listed as “about 10000”.

`CCCCCCCCCCCCOS(=O)(=O)[O-].[Na+]` [Sodium dodecyl sulfate]: the “Complexation Constant (K)” value in data set [3] is reported as “about 22000”.

Regarding `CCCCCCOC(=O)c1ccccc1O` [Hexyl Salicylate], the CD interaction result in data set [1] is “weak”.

Take `O=C1OC(c2ccc(O)cc2)(c2ccc(O)cc2)c2ccccc21` [phenolphthalein]: the “complexation constant of phenolphthalein with beta-cyclodextrin” value in data set [4] is on record as “about 21,000 M^−1”. Turning to `CC(=O)OC1CC2CC1C1CC=CC21` (centres unmarked) [Flor Acetate], the CD interaction result in data set [1] was “strong”. Same read-out and setting: the value for `CC(=O)/C=C/C1C(C)=CCCC1(C)C` (centres unmarked) [a-ionone] was “strong”; that for a-Me Ionone was “strong”. As to `CCCCCCCCCCCC(=O)[O-].[Na+]` [Sodium laurate], the “Complexation Constant (K)” value in data set [3] was “about 16000”. In the case of `CCC(C)(O)CCCC(C)C` (centres unmarked) [Tetrahydrolinalol], the CD interaction entry in data set [1] is listed as “significant”. On the same count and under the same terms, the value for `CC(=O)C(C)=C(C)C(C)C(C)(C)C` (centres unmarked) [Koavone] was “strong”; that for `O=C(Cc1ccccc1)OCCc1ccccc1` [Phenyl-Ethyl-Phenyl Acetate] was “weak”. Same read-out and setting: under `CC(=O)C1(C)CC2=C(CCCC2(C)C)CC1C` (centres unmarked) [Iso-E Super] stands “weak”; under `CC(C=O)Cc1ccc(C(C)(C)C)cc1` (centres unmarked) [Lilial, p-t-bucinal], “strong”; under `CCC(=O)OC1CC2CC1C1CC=CC21` (centres unmarked) [Frutene], “strong”.

Turning to `CCCCCC1C(=O)CCC1CC(=O)OC` (centres unmarked) [Methyl Dihydro Jasmonate], the CD interaction entry in data set [1] was “weak”. The same measure, in the same setting: the value for `CC(=O)OC(C)(C)C1CC=C(C)CC1` (centres unmarked) [Terpinyl Acetate] was “significant”; that for `CC1COCc2cc3c(cc21)C(C)(C)C(C)C3(C)C` (centres unmarked) [Galaxolide] was “weak”; that for `CC(C)(O)CCCC1=CCC(C=O)CC1` (centres unmarked) [Lyral] was “weak”. On the same count and under the same terms, under `CC(=O)OC1CCC(C(C)(C)C)CC1` (centres unmarked) [Vertenex, para-tert-butylcyclohexyl acetate] stands “strong”. As to Lauramine oxide, the “Complexation Constant (K)” value in data set [3] is recorded as “about 7500”.

The values above are taken from US20020010154A1, “Compositions comprising cyclodextrin” (priority 2000, published 2002).
